From patent US5451600A, “Substituted tetrahydrobenzopyrrolylfuranoic acid derivatives as phospholipase A2 inhibitors” (Hoffmann-La Roche Inc., priority 1994, dated 1995)
Where two headings read alike, the source gives them in different places.

Legend:
[1] = molecular target: T1, PLA2 activity in human synovial fluid (HSF) (Homo sapiens, UniProt P14555); test: Phospholipase A2 (PLA2) enzymatic assay - % Inhibition of HSF-PLA2; format: biochemical; conditions: for inhibition at 5 µM: read-out: % Inhib. of HSF-PLA2 at 5 μM; for IC50: human synovial fluid PLA2, 30 min at 37° C., pH 7.3
T1 construct: Synovial fluid was obtained from patients with rheumatoid arthritis; from tissue; host or cells: cell-depleted synovial fluid of patients with rheumatoid arthritis
T1 sequence (P14555 21-144): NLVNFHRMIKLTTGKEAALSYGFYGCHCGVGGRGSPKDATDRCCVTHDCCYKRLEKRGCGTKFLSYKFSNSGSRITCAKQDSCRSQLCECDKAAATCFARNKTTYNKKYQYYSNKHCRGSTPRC
Excerpt: 1, Phospholipase A2 (PLA2) enzymatic assay - % Inhibition of HSF-PLA2
PLA2 assay procedure described by Hope et al., Inflammation 14:543-559 (1.990) was utilized to measure the inhibitory activity of the invention (inhibitor) against PLA2 activity in human synovial fluid (HSF). Synovial fluid was obtained from patients with rheumatoid arthritis. The assay procedure measured the release of [1-^14 C]oleic acid from the sn-2 position of phospholipids in autoclaved Escherichia coli previously grown in media containing [1-^14 C]oleic acid. The standard assay reaction conditions included 1×10^9 Escherichia coil (10,000 dpm ^14 C), 0.15% (v/v) cell-depleted HSF, (which was equivalent to 66 μg protein/mL) 2 mM CaCl2, 150 mM NaCl, 50 mM sodium (N-[2-hydroxyethyl] piperazine-N'-[2-ethanesulfonate]) (HEPES) buffer (pH 7.3), 1% dimethyl sulfoxide (DMSO) and various concentrations of inhibitor in a total volume of 0.5 ml. Inhibitors were dissolved in DMSO and added. The reaction was initiated by addition of HSF, incubated for 30 min at 37° C. and then stopped by addition of 2.5 ml of chloroform/methanol (1:1.5, v/v). The total lipids were extracted by the method of Bligh, E. G., and Dyer, W. J, Can. J. Biochem. Physiol. 37:911-917 (1959) by the further addition of 0.5 mL of chloroform and 1 mL of water with mixing. The lipid extract was redissolved in chloroform/methanol (9:1, v/v) containing 10 ug of carrier oleic acid. The oleic acid was separated from phospholipids by thin layer chromatography using gel-impregnated glass fiber sheets (ITLC type SG sheets). The sheets were preactivated by heating at 110° C. for 30 min. The lipid extract was applied to the sheets and chromatographed for 6 minutes, using hexane/acetic acid (100:1, v/v). The positions on the sheet containing oleic acid and phospholipids were visualized by exposure to iodine vapor and located by comparison to standards. The oleic acid and phospholipid zones were cut from the sheets, shaken individually with 2 ml of ethanol/water (80:20, v/v) and 15 ml of Aquasol, then counted for [^14 C] radioactivity (dpm). PLA2 activity, expressed as percent hydrolysis, was calculated from the formula: [formula] and was corrected for nonenzymatic hydrolysis of the substrate. Percent inhibition due to the presence of drug was calculated from the formula: [formula]
When various concentrations of a Compound of Formula I were tested, the percent inhibition at each concentration was plotted as log concentration (abscissa) versus percent inhibition (ordinate) and the IC50 was determined from this plot.

[2] = system: adjuvant-induced arthritis in male Lewis rats; test: Established adjuvant-induced arthritis test; format: in vivo, rat; conditions: day 28 minus day 21, vehicle value in parentheses
Description: IV. Adjuvant-induced Arthritis
Male Lewis rats (120-140 g) received 0.1 mg myeobacterium brityricum (0.5% ow/v) heavy mineral oil containing 0.2% digitonin administered in the base of the tail and the resulting arthritis was allowed to develop for 21 days (Coffey and Salvador, 1981). The combinded volumes of both hind paws were measured using a water plethysmograph by immersion of the paws to the level of the lateral malleolus. The animals were divided into drug-treatedand vehicle (control) groups (six rats per group) with approximately equal volumes of both hind paws. On day 21, body weights were recorded and the i.p. or p.o. vehicle and drug were then administered daily for seven days. On day 28, the final day of the experiment, heparinized (0.2 units/100 μl) blood was also collected for measurement of plasma fibrinogen concentrations (Goodwin, 1961). The changes in paw volume and body weight were calculated as paw volume or body weight at day 28 minus paw volume or body weight at day 21. Values are reported as means ± S.E. for n=6. Plasma fibrinogen concentration was quantitated according to Goodwin et al. (1961) and is expressed in mg/dl. Statistical differences between measurement parameters of the drug-treated and control groups were determined using Students's t-test.

[3] = system: carrageenan-induced paw edema in rats; test: Carrageenan-induced paw edema model of inflammation; format: in vivo; conditions: rat; for inhibition in vivo at 100 mg/kg: 100 mg/Kg po
[4] = system: cellular PLA2; test: Inhibition of Cellular Phospholipase A2 (A23187-stimulated macrophages); format: cell-based; conditions: rat peritoneal macrophages, A-23187 stimulated
Description: II. Inhibition of Cellular Phospholipase A2. - % Inhibition of Cellular PLA2
Resident macrophages were obtained from rats by peritoneal lavage with phosphate buffered saline minus Ca2^++ and Mg2^++ (PBS). Cells were washed 3 times with PBS and resuspended in Dulbecco's Modified Eagle's Medium (GiBco) containing L-glutamine low D-glucose (1000 mg/L), and sodium pyruvate (110 mg/L), supplemented with 10% fetal calf serum. Cells were counted on a Coulter ZBI cell counter and then resuspended to a concentration of 6×10^6 cells/1.5 ml. The cell suspension (1.5 ml culture dishes (35 mm) and the cells were allowed to adhere to the dishes for 90 minutes at 37° C. Dishes were washed 3 times with PBS to remove non-adherent cells. [^14 C]arachidonic acid ([^14 C]-AA, approximately […], were added to the cells (1 uCi/dish) and allowed to incorporate for 120 minutes. Medium containing unincorporated [^14 C]-AA was removed and the cell layer was again washed 3 times with PBS. Inhibitors were dissolved in dimethylsulfoxide (DMSO) and added directly to the macrophages in Hank's Balanced Salt Solution (GiBco) phosphate-buffered, pH 7.4) to obtain the desired final concentration. Cells were incubated with drug or DMSO for 30 minutes at 37° C. and were then stimulated with calcium-ionophore A-23187 (0.75 uM) for 20 minutes. The extracellular medium was removed and the [^14 C] radioactivity released into this medium from AA metabolism was measured by liquid scintillation spectroscopy. The amounts of LTB4 and PGE2 were measured in the extracellular medium by radio immunoassay with specific antisera. The effects of inhibitor were measured as percent inhibition of A23187- stimulated AA metabolite release (^14 C release, PGE2 and LTB4 production) (control) which were calculated from the formula: [formula] IC50 's were calculated as described in the HSF-PLA2 assay.

[5] = 30 mg/Kg ip, 2 hr, read-out: Carrageenan ind. paw edema % Inhib. 2 hr
[6] = 2 hr, read-out: Carrageenan ind. paw edema % Inhib. 2 hr
[7] = 20 mg/Kg ip, 2 hr, read-out: Carrageenan ind. paw edema % Inhib. 2 hr

Row | Compound | inhibition at 5 µM [1] | inhibition in vivo at 30 mg/kg [3, 5] | inhibition in vivo at 100 mg/kg [3, 6] | % Inhib. of cellular PLA2 at 5 μM [4] | other results
1 | CCCCCCCCC1CCCc2c1n(CCCCCCCC)c1ccc(Oc3ccc(C(=O)O)o3)cc21 (racemic) [Example 154, rac-5-[(1,2,3,4-tetrahydro-1,9-dioctyl-9H-dibenzo[b,d]pyrrol-6-yl)oxy]-2-furancarboxylic acid] | 81% | 45% | 49% | 78% | Change of body wt. (vehicle) ([2]; 30 mg/Kg po daily seven days): 10 g
2 | CCCCCCCCn1c2c(c3cc(/C=C\c4ccc(C(=O)O)o4)ccc31)CCCC2 [Example 51, (Z)-5-[2-(1,2,3,4-tetrahydro-9-octyl-9H-dibenzo[b,d]pyrrol-6-yl)ethenyl]-2-furancarboxylic acid] | 67% |  | 72% | 85% | IC50 [1]: 4 µM; Change of body wt. (vehicle) ([2]; 10 mg/Kg po daily seven days): 6 g; Change of paw volume (vehicle) ([2]; 10 mg/Kg po daily seven days): 0.71 mL; inhibition in vivo at 1 mg/kg ([3]; 1 mg/Kg ip, 2 hr, read-out: Carrageenan ind. paw edema % Inhib. 2 hr): 70%; IC50 [4]: 2 µM
3 | CCCCCCCCn1c2c(c3cc(CCc4ccc(C(=O)O)o4)ccc31)CCCC2 [Example 55, 5-[2-(1,2,3,4-tetrahydro-9-octyl-9H-dibenzo[b,d]pyrrol-6-yl)ethyl]-2-furancarboxylic acid] | 73% |  | 49% | 91% | inhibition in vivo at 10 mg/kg ([3]; 10 mg/Kg ip, 2 hr, read-out: Carrageenan ind. paw edema % Inhib. 2 hr): 59%
4 | CCCCCCCCn1c2c(c3ccc(Oc4ccc(C(=O)O)o4)cc31)CCCC2 [Example 133, 5-[(1,2,3,4-tetrahydro-9-octyl-9H-dibenzo[b,d]pyrrol-7-yl)oxy]-2-furancarboxylic acid] | 31% |  | 58% | 85% | 
5 | CCCCCCCCn1c2c(c3cc(Oc4ccc(C(=O)O)o4)ccc31)CCCC2(C)C [Example 134, 5-[(1,2,3,4-tetrahydro-1,1-dimethyl-9-octyl-9H-dibenzo[b,d]pyrrol-6-yl)oxy]-2-furancarboxylic acid] | 86% |  | 48% | 94% | inhibition in vivo at 20 mg/kg [3, 7]: 36%
6 | O=C(O)c1ccc(Oc2ccc3c(c2)c2c(n3Cc3ccc(Cl)cc3)CCCC2)o1 [Example 139, 5-[[1,2,3,4-tetrahydro-9-(4-chlorophenyl)methyl-9H-dibenzo[b,d]pyrrol-6-yl]oxy]-2-furancarboxylic acid] | 31% | 68% |  | 100% | 
7 | CCCCCCCCCn1c2c(c3cc(Oc4ccc(C(=O)O)o4)ccc31)CCCC2 [Example 142, 5-[(1,2,3,4-tetrahydro-9-nonyl-9H-dibenzo[b,d]pyrrol-6-yl)oxy]-2-furancarboxylic acid] | 83% |  |  | 90% | inhibition in vivo at 30 mg/kg ([3]; 30 mg/Kg po, 2 hr, read-out: Carrageenan ind. paw edema % Inhib. 2 hr): 48%
8 | O=C(O)c1ccc(Oc2ccc3c(c2)c2c(n3CCCCc3ccccc3)CCCC2)o1 [Example 145, 5-[[1,2,3,4-tetrahydro-9-(4-phenylbutyl)-9H-dibenzo[b,d]pyrrol-6-yl]oxy]-2-furancarboxylic acid] | 47% | 43% |  | 99% | IC50 [1]: 4.8 µM
9 | O=C(O)c1ccc(Oc2ccc3c(c2)c2c(n3Cc3ccc(F)cc3)CCCC2)o1 [Example 146, 5-[[9-[(4-fluorophenyl)methyl]-1,2,3,4-tetrahydro-9H-dibenzo[b,d]pyrrol-6-yl]oxy]-2-furancarboxylic acid] | 37% | 51% | 33% | 98% | 
10 | O=C(O)c1ccc(Oc2ccc3c(c2)c2c(n3Cc3cccc(F)c3)CCCC2)o1 [Example 147, 5-[[9-[(3-fluorophenyl)methyl]-1,2,3,4-tetrahydro-9H-dibenzo[b,d]pyrrol-6-yl]oxy]-2-furancarboxylic acid] | 37% | 49% |  | 94% | 
11 | COc1ccc(Cn2c3c(c4cc(Oc5ccc(C(=O)O)o5)ccc42)CCCC3)cc1 [Example 149, 5-[[1,2,3,4-tetrahydro-9-[(4-methoxyphenyl)methyl]-9H-dibenzo[b,d]pyrrol-6-yl]oxy]-2-furancarboxylic acid] | 62% | 48% |  | 99% | 
12 | COc1ccc(Cn2c3c(c4cc(Oc5ccc(C(=O)O)o5)ccc42)CCCC3)cc1OC [Example 150, 5-[[1,2,3,4-tetrahydro-9-[(3,4-dimethoxyphenyl)methyl]-9H-dibenzo[b,d]pyrrol-6-yl]oxy]-2-furancarboxylic acid] | 42% | 45% |  | 96% | 
13 | CCCCCCCCn1c2c(c3cc(C(=O)c4ccc(C(=O)O)o4)ccc31)CCCC2 [Example 157, 5-[(1,2,3,4-tetrahydro-9-octyl-9H-dibenzo[b,d]pyrrol-6-yl)carbonyl]-2-furancarboxylic acid] | 40% |  | 44% | 68% | inhibition in vivo at 20 mg/kg [3, 7]: 41%
14 | (E)-5-[2-(1,2,3,4-tetrahydro-3,3dimethyl-9-octyl-9 H-dibenzo[b,d]-pyrrol-6yl)ethenyl]-2-furancarboxylic acid [Example 45] |  |  |  | 53% | % Inhib. of HSF-PLA2 at 5 μM ([1]; 5 μM): 86%; Carrageenan ind. paw edema % Inhib. 2 hr ([3]; 20 mg/Kg ip): 46%
